Reference: patent US9714247B2, “Multiple kinase pathway inhibitors” (Mannkind Corporation, priority 2012, dated 2017)
Read-outs that look alike come from different tables or passages of the source.

How the values were obtained:
Src = Src (Homo sapiens (Human), UniProt P12931); experiment: biochemical
Ramos = experiment: CellTiter-Glo proliferation/viability assay; assay type: cell-based, human; conditions: Homo sapiens, Ramos, read-out: Ramos EC50
BTK = BTK (Homo sapiens (Human), UniProt Q06187)
Lyn [1] = target: T1, Lyn (Homo sapiens (Human), UniProt P07948); experiment: biochemical
DoHH2 = experiment: CellTiter-Glo proliferation/viability assay; assay type: cell-based, human; conditions: Homo sapiens, DOHH-2; 48 hrs; read-out: DoHH2 EC50
Lyn [2] = target: T1, Lyn; conditions: read-out: Lyn IC50

BTK, sequence (Q06187 whole entry): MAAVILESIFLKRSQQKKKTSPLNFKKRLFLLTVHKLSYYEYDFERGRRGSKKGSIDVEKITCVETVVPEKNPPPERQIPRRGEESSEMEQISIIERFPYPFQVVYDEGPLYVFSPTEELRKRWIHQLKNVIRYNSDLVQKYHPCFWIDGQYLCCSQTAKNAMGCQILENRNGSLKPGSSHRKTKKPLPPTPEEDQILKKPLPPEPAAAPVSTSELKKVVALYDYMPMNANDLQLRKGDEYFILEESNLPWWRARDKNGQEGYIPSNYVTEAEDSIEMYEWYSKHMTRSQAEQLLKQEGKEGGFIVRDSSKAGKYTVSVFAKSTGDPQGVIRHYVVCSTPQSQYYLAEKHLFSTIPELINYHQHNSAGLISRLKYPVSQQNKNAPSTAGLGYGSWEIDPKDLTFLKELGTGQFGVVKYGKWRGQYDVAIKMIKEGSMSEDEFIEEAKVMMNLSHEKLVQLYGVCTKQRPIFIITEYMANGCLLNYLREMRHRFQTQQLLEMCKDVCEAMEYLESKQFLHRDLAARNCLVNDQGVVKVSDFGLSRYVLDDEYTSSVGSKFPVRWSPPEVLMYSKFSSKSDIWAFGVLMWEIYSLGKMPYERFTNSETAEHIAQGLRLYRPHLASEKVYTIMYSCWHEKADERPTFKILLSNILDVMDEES
T1 sequence (P07948 whole entry): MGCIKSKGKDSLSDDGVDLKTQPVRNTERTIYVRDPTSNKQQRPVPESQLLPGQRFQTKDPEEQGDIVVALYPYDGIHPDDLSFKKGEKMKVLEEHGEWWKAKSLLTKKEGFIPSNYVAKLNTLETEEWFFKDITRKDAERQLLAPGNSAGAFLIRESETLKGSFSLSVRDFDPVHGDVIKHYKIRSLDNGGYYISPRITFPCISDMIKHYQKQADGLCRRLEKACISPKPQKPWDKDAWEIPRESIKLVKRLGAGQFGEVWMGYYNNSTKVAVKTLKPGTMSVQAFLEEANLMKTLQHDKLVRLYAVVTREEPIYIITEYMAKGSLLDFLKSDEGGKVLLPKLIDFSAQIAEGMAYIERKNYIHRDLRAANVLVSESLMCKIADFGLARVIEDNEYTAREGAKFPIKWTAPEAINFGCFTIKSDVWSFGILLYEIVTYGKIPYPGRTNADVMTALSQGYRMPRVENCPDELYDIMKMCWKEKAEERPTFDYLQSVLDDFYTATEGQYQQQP
Src, sequence (P12931 whole entry, looked up): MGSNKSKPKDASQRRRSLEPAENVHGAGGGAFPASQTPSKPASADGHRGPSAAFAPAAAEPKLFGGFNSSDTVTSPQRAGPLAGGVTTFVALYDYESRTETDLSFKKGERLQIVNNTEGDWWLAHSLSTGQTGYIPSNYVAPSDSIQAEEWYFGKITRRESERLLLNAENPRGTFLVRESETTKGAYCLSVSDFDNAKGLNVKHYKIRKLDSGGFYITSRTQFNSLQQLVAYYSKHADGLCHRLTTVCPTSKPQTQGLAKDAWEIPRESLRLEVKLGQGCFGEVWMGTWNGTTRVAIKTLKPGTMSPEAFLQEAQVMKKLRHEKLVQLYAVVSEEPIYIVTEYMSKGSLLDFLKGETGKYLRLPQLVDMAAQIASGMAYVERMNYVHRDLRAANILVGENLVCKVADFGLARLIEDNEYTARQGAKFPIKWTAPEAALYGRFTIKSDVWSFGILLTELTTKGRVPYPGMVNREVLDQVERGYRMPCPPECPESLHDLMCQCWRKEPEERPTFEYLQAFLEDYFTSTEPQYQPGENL

IC50 (Src) [µM] | EC50 (Ramos; 48 hrs) [µM] | IC50 (BTK; read-out: BTK IC50) [µM] | IC50 (Lyn [1]) [µM] | EC50 (Ramos; 48 h) [µM] | IC50 (BTK) [µM] | IC50 (Lyn [2]) [µM] | IC50 (Lyn [1]; Lyn IC50) [µM] | Compound | EC50 (DoHH2) [µM]
0.1 to 1 | 1 to 10 | > 5 | 1 to 5 |  |  |  |  | CCn1c(=O)c(C#CCO)cc2cnc(Nc3ccc(C)cn3)cc21 [Compound 53] | 1 to 10
0.1 to 1 |  | < 0.1 | 1 to 5 | > 10 |  |  |  | CCn1c(=O)c(-c2ccccc2)cc2cnc(Nc3cn(CCOC)cn3)cc21 [Compound 114, 1-ethyl-7-((1-(2-methoxyethyl)-1H-imidazol-4-yl)amino)-3-phenyl-1,6-naphthyridin-2(1H)-one] | 1 to 10
1 to 5 | > 10 |  | 0.1 to 1 |  | 1 to 5 |  |  | CCn1c(=O)c(-c2ccccc2)cc2cnc(Nc3cnccn3)cc21 [Compound 6, 1-Ethyl-3-phenyl-7-(pyrazin-2-ylamino)-1H-[1,6]naphthyridin-2-one] | > 10
0.1 to 1 |  |  | 0.1 to 1 | > 10 | 1 to 5 |  |  | CCN(CC)CCOc1ccc(Nc2cc3[nH]c(=O)c(C(C)C)cc3cn2)nc1 [Compound 49, 7-(5-(2-(diethylamino)ethoxy)pyridin-2-ylamino)-3-isopropyl-1,6-naphthyridin-2(1H)-one] | 1 to 10
0.1 to 1 | > 10 |  | 0.1 to 1 |  | 1 to 5 |  |  | CCn1c(=O)c(C#CC(C)(C)O)cc2cnc(Nc3ccc(C)cn3)cc21 [Compound 54] | 1 to 10
1 to 5 | > 10 |  |  |  |  | > 5 |  | O=c1c(-c2c(F)cccc2F)cc2cnc(Nc3ccc(F)cn3)cc2n1[C@H]1CCNC1 [Compound 149, (S)-3-(2,6-difluorophenyl)-7-((5-fluoropyridin-2-yl)amino)-1-(pyrrolidin-3-yl)-1,6-naphthyridin-2(1H)-one] | 1 to 10
0.1 to 1 |  |  | 1 to 5 | > 10 | 0.1 to 1 |  |  | CCn1c(=O)c(-c2ccccc2)cc2cnc(Nc3ccncn3)cc21 [Compound 60, 1-Ethyl-3-phenyl-7-(pyrimidin-4-ylamino)-1H-[1,6]naphthyridin-2-one] | 1 to 10
0.1 to 1 |  | > 5 |  | > 10 |  | > 5 |  | CCn1c(=O)c(-c2ccc(C)cc2)cc2cnc(Nc3ccc(C)cn3)cc21 [Compound 40, 1-ethyl-7-(5-methylpyridin-2-ylamino)-3-p-tolyl-1,6-naphthyridin-2(1H)-one] | > 10
1 to 5 |  |  | 0.1 to 1 | > 10 | 0.1 to 1 |  |  | CCn1c(=O)c(-c2ccccc2)cc2cnc(Nc3cc(N4CCN(CCO)CC4)nc(C)n3)cc21 [Compound 5, 1-Ethyl-7-{6-[4-(2-hydroxy-ethyl)-piperazin-1-yl]-2-methyl-pyrimidin-4-ylamino}-3-phenyl-1H-[1,6]naphthyridin-2-one] | 1 to 10
0.1 to 1 |  | > 5 |  | 1 to 10 |  | > 5 |  | CCn1c(=O)c(C2CCCC2)cc2cnc(Nc3ccc(C)cn3)cc21 [Compound 31, 3-Cyclopentyl-1-ethyl-7-(5-methyl-pyridin-2-ylamino)-1H-[1,6]naphthayridin-2-one] | > 10
1 to 5 | > 10 |  |  |  | 1 to 5 | > 5 |  | CCN(CC)CCOc1cnc(Nc2cc3c(cn2)cc(-c2ccccc2)c(=O)n3CC)nc1 [Compound 3, 7-[5-(2-Diethylamino-ethoxy)-pyrimidin-2-ylamino]-1-ethyl-3-phenyl-1H-[1,6]naphthyridin-2-one] | 1 to 10
0.1 to 1 | 1 to 10 | > 5 |  |  |  | > 5 |  | CC#Cc1cc2cnc(Nc3ccc(C)cn3)cc2n(CC)c1=O [Compound 21] | 1 to 10
0.1 to 1 |  | > 5 | 0.1 to 1 | 1 to 10 |  |  |  | CCN(CC)CCOc1ccc(Nc2cc3c(cn2)cc(-c2ccc(SC)cc2)c(=O)n3CC)nc1 [Compound 104, 7-((5-(2-(diethylamino)ethoxy)pyridin-2-yl)amino)-1-ethyl-3-(4-(methylthio)phenyl)-1,6-naphthyridin-2(1H)-one] | 1 to 10
0.1 to 1 | 1 to 10 |  | 1 to 5 |  | 1 to 5 |  |  | CCn1c(=O)c(-c2ccccc2)cc2cnc(Nc3ccc(OC)nn3)cc21 [Compound 61, 1-Ethyl-7-(6-methoxy-pyridazin-3-ylamino)-3-phenyl-1H-[1,6]naphthyridin-2-one] | < 1
0.1 to 1 |  |  |  | > 10 | 1 to 5 |  | 0.1 to 1 | CCN(CC)CCOc1ccc(Nc2cc3c(cn2)cc(-c2ccccc2)c(=O)n3C2CCN(C)C2)nc1 (stereo not drawn) [Compound 58, 7-((5-(2-(diethylamino)ethoxy)pyridin-2-yl)amino)-1-(1-methylpyrrolidin-3-yl)-3-phenyl-1,6-naphthyridin-2(1H)-one] | 1 to 10
0.1 to 1 | > 10 |  | 0.1 to 1 |  |  |  |  | O=c1c(-c2c(F)cccc2F)cc2cnc(Nc3ccc(F)cn3)cc2n1[C@@H]1CCNC1 [Compound 151, (R)-3-(2,6-difluorophenyl)-7-((5-fluoropyridin-2-yl)amino)-1-(pyrrolidin-3-yl)-1,6-naphthyridin-2(1H)-one] | 1 to 10
0.1 to 1 |  | > 5 |  | > 10 |  |  | 1 to 5 | CCN(CC)CCOc1ccc(Nc2cc3c(cn2)cc(-c2ccccc2)c(=O)n3CC2CCN(C)C2)nc1 (stereo not drawn) [Compound 65, 7-((5-(2-(diethylamino)ethoxy)pyridin-2-yl)amino)-1-((1-methylpyrrolidin-3-yl)methyl)-3-phenyl-1,6-naphthyridin-2(1H)-one] | < 1
0.1 to 1 |  | > 5 |  | > 10 |  |  | 0.1 to 1 | CCN(CC)CCOc1ccc(Nc2cc3c(cn2)cc(-c2ccccn2)c(=O)n3CC)nc1 [Compound 102, 7-((5-(2-(diethylamino)ethoxy)pyridin-2-yl)amino)-1-ethyl-3-(pyridin-2-yl)-1,6-naphthyridin-2(1H)-one] | 1 to 10
< 0.1 |  |  |  | 1 to 10 |  |  | 0.1 to 1 | O=c1c(-c2c(F)cccc2F)cc2cnc(Nc3ccc(F)cn3)cc2n1C1CCOC1 (single isomer, unassigned) [Compound 141, (S or R)-3-(2,6-difluorophenyl)-7-((5-fluoropyridin-2-yl)amino)-1-(tetrahydrofuran-3-yl)-1,6-naphthyridin-2(1H)-one] | < 1
0.1 to 1 | 1 to 10 | < 0.1 | 0.1 to 1 |  |  |  |  | CCn1c(=O)c(-c2ccccc2)cc2cnc(Nc3ccc(CN4CCNCC4)cn3)cc21 [Compound 110, 1-ethyl-3-phenyl-7-((5-(piperazin-1-ylmethyl)pyridin-2-yl)amino)-1,6-naphthyridin-2(1H)-one] | < 1
0.1 to 1 | > 10 |  |  |  | 1 to 5 | > 5 |  | CCN(CC)CCOc1ccc(Nc2cc3c(cn2)cc(C(C)C)c(=O)n3CCOC)nc1 [Compound 57, 7-[5-(2-Diethylamino-ethoxy)-pyridin-2-ylamino]-3-isopropyl-1-(2-methoxy-ethyl)-1H-[1,6]naphthyridin-2-one] | 1 to 10
1 to 5 |  |  |  | > 10 |  |  | 1 to 5 | CN1CCC(n2c(=O)c(-c3c(F)cccc3F)cc3cnc(Nc4ccc(F)cn4)cc32)C1 (stereo not drawn) [Compound 85, 3-(2,6-difluorophenyl)-7-((5-fluoropyridin-2-yl)amino)-1-(1-methylpyrrolidin-3-yl)-1,6-naphthyridin-2(1H)-one] | 1 to 10
0.1 to 1 | > 10 |  |  |  |  |  |  | CCN(CC)CCOc1ccc(Nc2cc3c(cn2)cc(C(C)C)c(=O)n3C)nc1 [Compound 59, 7-[5-(2-Diethylamino-ethoxy)-pyridin-2-ylamino]-3-isopropyl-1-methyl-1H-[1,6]naphthyridin-2-one] | 1 to 10
1 to 5 |  |  |  | > 10 | 0.1 to 1 | > 5 |  | COCCn1c(=O)c(-c2c(F)cccc2F)cc2cnc(Nc3ccc(F)cn3)cc21 [Compound 126, 3-(2,6-difluorophenyl)-7-((5-fluoropyridin-2-yl)amino)-1-(2-methoxyethyl)-1,6-naphthyridin-2(1H)-one] | 1 to 10
1 to 5 |  | > 5 |  | > 10 |  | > 5 |  | CCn1c(=O)c(C#CCOC)cc2cnc(Nc3ccc(C)cn3)cc21 [Compound 32] | > 10
0.1 to 1 | > 10 |  | 0.1 to 1 |  |  |  |  | CCN(CC)CCOc1ccc(Nc2cc3c(cn2)cc(C(C)C)c(=O)n3CC)nc1 [Compound 50, 7-[5-(2-Diethylamino-ethoxy)-pyridin-2-ylamino]-1-ethyl-3-isopropyl-1H-[1,6]naphthyridin-2-one] | 1 to 10
0.1 to 1 | < 1 | > 5 |  |  |  | < 0.1 |  | CCn1c(=O)c(-c2ccccc2)cc2cnc(Nc3ccc(C(=O)N4CCOCC4)cn3)cc21 [Compound 4, 1-Ethyl-7-[5-(morpholine-4-carbonyl)-pyridin-2-ylamino]-3-phenyl-1H-[1,6]naphthyridin-2-one] | 1 to 10
0.1 to 1 |  | > 5 |  | 1 to 10 |  | > 5 |  | CCn1c(=O)c(C#CC(C)(C)C)cc2cnc(Nc3ccc(C)cn3)cc21 [Compound 39] | 1 to 10
1 to 5 | > 10 | > 5 |  |  |  | > 5 |  | CCn1c(=O)c(C(C)=O)cc2cnc(Nc3ccc(C)cn3)cc21 [Compound 33] | > 10
